Measurements published in US11000033B2, “Ketone or oxime compound, and herbicide” (NISSAN CHEMICAL CORPORATION, priority 2014, dated 2021).

Columns and labels:
Type in all cases: in vivo
[1] = tested on: Cyperus difformis; experiment: Test Example 3: herbicidal effect by foliage application, Wagner pot (symbol E); details: application herbicide amount 320 g/ha; for E herbicidal effect grade: Table 24
In short: (§1)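 Post-emergence, paddy-type test: seedlings 14 d old in shallow-flooded (0.1–0.5 cm) alluvial soil, 25–30 °C greenhouse. Emulsion diluted to target rate, sprayed on leaves. Read-out: visual effect on each species at 3 weeks, per set criteria.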

[2] = tested on: Abutilon theophrasti; experiment: Test Example 5: herbicidal effect by foliage application, plastic box (symbol M); details: 320 g/ha, 3 weeks after application
In short: (§2)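 Greenhouse foliar test: seedlings at 14 days, grown 25° C. to 30° C. in sterilized diluvial soil; compound applied as an aqueous dilution of an emulsion; response read 3 weeks after spraying.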

[3] = tested on: Stellaria media; experiment: Test Example 5: herbicidal effect by foliage application, plastic box (symbol P); details: 320 g/ha, 3 weeks after application
In short: as §2

[4] = tested on: Digitaria ciliaris; experiment: Test Example 5: herbicidal effect by foliage application, plastic box (symbol F); details: 320 g/ha, 3 weeks after application
In short: as §2

[5] = tested on: Setaria viridis; experiment: Test Example 4: herbicidal effect by soil treatment (symbol G); details: application herbicide amount 320 g/ha
In short: (§3)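 Seeds were sown in sterilized diluvial soil, covered with about 1.5 cm of soil, and the soil surface was sprayed with a water-diluted emulsion of the compound at a predetermined rate. Plants grew in a greenhouse at 25° C. to 30° C.; effects were scored visually 3 weeks after application.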

[6] = tested on: Amaranthus retroflexus; experiment: Test Example 5: herbicidal effect by foliage application, plastic box (symbol N); details: 320 g/ha, 3 weeks after application
In short: as §2

[7] = tested on: Echinochloa oryzacola Vasing.; experiment: Test Example 1: herbicidal activity, application before weed generation in submerged conditions (symbol A); details: application herbicide amount 320 g/ha
In short: (§4)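 Mixed weed seeds sown in alluvial soil under 4 cm of water, with rice seedlings at the 2.5-leaf stage added. Same-day treatment: emulsion diluted to a set herbicide amount onto the water. Three weeks at 25–30 °C, then graded on a six-step scale.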

[8] = tested on: beet; experiment: Test Example 5: effect on crop by foliage application, plastic box (symbol f); details: 320 g/ha, 3 weeks after application
In short: (§5)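 Box culture: sterile diluvial soil, seeds spot-sown, ~1.5 cm cover, raised under glass at 25–30° C.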

[9] = tested on: Scirpus juncoides; experiment: Test Example 1: herbicidal activity, application before weed generation in submerged conditions (symbol B); details: application herbicide amount 320 g/ha
In short: as §4

[10] = tested on: Apera spica-venti; experiment: Test Example 4: herbicidal effect by soil treatment (symbol L); details: application herbicide amount 320 g/ha
In short: as §3

[11] = tested on: rapeseed; experiment: Test Example 4: effect on crop by soil treatment (symbol g); details: application herbicide amount 320 g/ha
In short: (§6)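 Plants grew in a 25° C. to 30° C. greenhouse after spot-sowing of seeds, including beet, rapeseed, wheat and rice, into sterilized diluvial soil under roughly 1.5 cm of cover soil.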

[12] = tested on: Alopecurus myosuroides; experiment: Test Example 5: herbicidal effect by foliage application, plastic box (symbol J); details: 320 g/ha, 3 weeks after application
In short: as §2

[13] = tested on: Alopecurus myosuroides; experiment: Test Example 4: herbicidal effect by soil treatment (symbol J); details: application herbicide amount 320 g/ha
In short: as §3

[14] = tested on: Apera spica-venti; experiment: Test Example 5: herbicidal effect by foliage application, plastic box (symbol L); details: 320 g/ha, 3 weeks after application
In short: as §2

[15] = tested on: Echinochloa crus-galli var. crus-galli; experiment: Test Example 3: herbicidal effect by foliage application, Wagner pot (symbol H); details: application herbicide amount 320 g/ha; for H (Echinochloa crus-galli var. crus-galli) herbicidal effect grade: Table 24
In short: as §1

[16] = tested on: Galium spurium; experiment: Test Example 5: herbicidal effect by foliage application, plastic box (symbol Q); details: 320 g/ha, 3 weeks after application
In short: as §2

[17] = tested on: rapeseed; experiment: Test Example 5: effect on crop by foliage application, plastic box (symbol g); details: 320 g/ha, 3 weeks after application
In short: as §5

[18] = tested on: wheat; experiment: Test Example 4: effect on crop by soil treatment (symbol e); details: application herbicide amount 320 g/ha
In short: as §6

| SMILES | E herbicidal effect grade [1] | M: Abutilon theophrasti, herbicidal effect grade [2] | P: Stellaria media, herbicidal effect grade [3] | F: Digitaria ciliaris, herbicidal effect grade [4] | Herbicidal effect grade, G: Setaria viridis [5] | N: Amaranthus retroflexus, herbicidal effect grade [6] | Herbicidal effect grade, A: Echinochloa oryzacola Vasing. [7] | f: beet, effect on crop grade [8] | Herbicidal effect grade, B: Scirpus juncoides [9] | Herbicidal effect grade, L: Apera spica-venti [10] | Effect on crop grade, g: rapeseed [11] | J: Alopecurus myosuroides, herbicidal effect grade [12] | Herbicidal effect grade, J: Alopecurus myosuroides [13] | L: Apera spica-venti, herbicidal effect grade [14] | H (Echinochloa crus-galli var. crus-galli) herbicidal effect grade [15] | Q: Galium spurium, herbicidal effect grade [16] | g: rapeseed, effect on crop grade [17] | Effect on crop grade, e: wheat [18] | herbicidal effect on E, grade 0-5 [1] | herbicidal effect on H (Echinochloa crus-galli var. crus-galli), grade 0-5 [15] | further results |
| --- | --- | --- | --- | --- | --- | --- | --- | --- | --- | --- | --- | --- | --- | --- | --- | --- | --- | --- | --- | --- | --- |
| CC(=O)C1CC(O)=C(c2c(C)cc(C)cc2C)C1=O (stereo not drawn) [8-001] | 0 (Herbicidal ratio of 5% or lower (almost no effect)) | 0 (Herbicidal ratio of 5% or lower (almost no effect)) | 0 (Herbicidal ratio of 5% or lower (almost no effect)) | 1 (Herbicidal ratio of 5% or higher and lower than 20%) | 0 (Herbicidal ratio of 5% or lower (almost no effect)) | 0 (Herbicidal ratio of 5% or lower (almost no effect)) | 0 (Herbicidal ratio of 5% or lower (almost no effect)) | 0 (Herbicidal ratio of 5% or lower (almost no effect)) | 0 (Herbicidal ratio of 5% or lower (almost no effect)) | 0 (Herbicidal ratio of 5% or lower (almost no effect)) | 0 (Herbicidal ratio of 5% or lower (almost no effect)) | 0 (Herbicidal ratio of 5% or lower (almost no effect)) | 0 (Herbicidal ratio of 5% or lower (almost no effect)) | 0 (Herbicidal ratio of 5% or lower (almost no effect)) | 0 (Herbicidal ratio of 5% or lower (almost no effect)) | 0 (Herbicidal ratio of 5% or lower (almost no effect)) | 0 (Herbicidal ratio of 5% or lower (almost no effect)) | 0 (Herbicidal ratio of 5% or lower (almost no effect)) |  |  |  |
| C#CCON=C(C)CC1CC(O)=C(c2c(C)cc(C)cc2C)C1=O (stereo not drawn) [1-019] |  | 4 (Herbicidal ratio of 70% or higher and lower than 90%) | 4 (Herbicidal ratio of 70% or higher and lower than 90%) | 5 (Herbicidal ratio of 90% or more (almost completely withered)) |  | 2 (Herbicidal ratio of 20% or higher and lower than 40%) | 5 (Herbicidal ratio of 90% or more (almost completely withered)) | 4 (Herbicidal ratio of 70% or higher and lower than 90%) | 5 (Herbicidal ratio of 90% or more (almost completely withered)) |  |  | 5 (Herbicidal ratio of 90% or more (almost completely withered)) |  | 5 (Herbicidal ratio of 90% or more (almost completely withered)) |  | 4 (Herbicidal ratio of 70% or higher and lower than 90%) | 4 (Herbicidal ratio of 70% or higher and lower than 90%) |  | 5 (Herbicidal ratio of 90% or more (almost completely withered)) | 5 (Herbicidal ratio of 90% or more (almost completely withered)) | G (Setaria viridis) herbicidal effect grade [5]: 3 (Herbicidal ratio of 40% or higher and lower than 70%); L (Apera spica-venti) herbicidal effect grade [10]: 5 (Herbicidal ratio of 90% or more (almost completely withered)); g (rapeseed) effect on crop grade [11]: 4 (Herbicidal ratio of 70% or higher and lower than 90%); J (Alopecurus myosuroides) herbicidal effect grade [13]: 5 (Herbicidal ratio of 90% or more (almost completely withered)); e (wheat) effect on crop grade [18]: 3 (Herbicidal ratio of 40% or higher and lower than 70%) |
| CON=C(C)CC1CC(OC(=O)COc2ccccc2)=C(c2c(C)cc(-c3ccc(Cl)cc3)cc2C)C1=O (mixture of isomers) [6-061] |  |  |  |  |  |  | 5 (Herbicidal ratio of 90% or more (almost completely withered)) |  | 1 (Herbicidal ratio of 5% or higher and lower than 20%) |  |  |  |  |  |  |  |  |  | 5 (Herbicidal ratio of 90% or more (almost completely withered)) | 5 (Herbicidal ratio of 90% or more (almost completely withered)) | M: Abutilon theophrasti, herbicidal effect (criteria of Test Example 1) [2]: 4 (Herbicidal ratio of 70% or higher and lower than 90%); P: Stellaria media, herbicidal effect (criteria of Test Example 1) [3]: 3 (Herbicidal ratio of 40% or higher and lower than 70%); F: Digitaria ciliaris, herbicidal effect (criteria of Test Example 1) [4]: 5 (Herbicidal ratio of 90% or more (almost completely withered)); G: Setaria viridis, herbicidal effect grade [5]: 5 (Herbicidal ratio of 90% or more (almost completely withered)); N: Amaranthus retroflexus, herbicidal effect (criteria of Test Example 1) [6]: 1 (Herbicidal ratio of 5% or higher and lower than 20%); f: beet, effect on crop (criteria of Test Example 1) [8]: 3 (Herbicidal ratio of 40% or higher and lower than 70%); L: Apera spica-venti, herbicidal effect grade [10]: 5 (Herbicidal ratio of 90% or more (almost completely withered)); g: rapeseed, effect on crop grade [11]: 3 (Herbicidal ratio of 40% or higher and lower than 70%); J: Alopecurus myosuroides, herbicidal effect (criteria of Test Example 1) [12]: 5 (Herbicidal ratio of 90% or more (almost completely withered)); J: Alopecurus myosuroides, herbicidal effect grade [13]: 5 (Herbicidal ratio of 90% or more (almost completely withered)); L: Apera spica-venti, herbicidal effect (criteria of Test Example 1) [14]: 5 (Herbicidal ratio of 90% or more (almost completely withered)); Q: Galium spurium, herbicidal effect (criteria of Test Example 1) [16]: 3 (Herbicidal ratio of 40% or higher and lower than 70%); g: rapeseed, effect on crop (criteria of Test Example 1) [17]: 4 (Herbicidal ratio of 70% or higher and lower than 90%); e: wheat, effect on crop grade [18]: 2 (Herbicidal ratio of 20% or higher and lower than 40%) |
| CON=C(C)C(=NOC)C1CC(O)=C(c2c(C)cc(C)cc2C)C1=O (stereo not drawn) [8-003] | 0 (Herbicidal ratio of 5% or lower (almost no effect)) | 0 (Herbicidal ratio of 5% or lower (almost no effect)) | 0 (Herbicidal ratio of 5% or lower (almost no effect)) | 0 (Herbicidal ratio of 5% or lower (almost no effect)) | 0 (Herbicidal ratio of 5% or lower (almost no effect)) | 0 (Herbicidal ratio of 5% or lower (almost no effect)) | 0 (Herbicidal ratio of 5% or lower (almost no effect)) | 0 (Herbicidal ratio of 5% or lower (almost no effect)) | 0 (Herbicidal ratio of 5% or lower (almost no effect)) | 0 (Herbicidal ratio of 5% or lower (almost no effect)) | 0 (Herbicidal ratio of 5% or lower (almost no effect)) | 0 (Herbicidal ratio of 5% or lower (almost no effect)) | 0 (Herbicidal ratio of 5% or lower (almost no effect)) | 0 (Herbicidal ratio of 5% or lower (almost no effect)) | 0 (Herbicidal ratio of 5% or lower (almost no effect)) | 0 (Herbicidal ratio of 5% or lower (almost no effect)) | 0 (Herbicidal ratio of 5% or lower (almost no effect)) | 0 (Herbicidal ratio of 5% or lower (almost no effect)) |  |  |  |
